A short description of one data set: Rat plasma stability. The data set is classed as in vitro ADME. As to conditions: rat; for half-life at 5 μM: plasma. The procedure:
Rat and human plasma were obtained from qualified vendors. […] The assay was performed in duplicate.

A further data set in a line: in vitro. As to conditions: human, plasma.
Another data set has as its target DPP4 (Homo sapiens, UniProt P27487). The experiment in a line: in vitro. As to conditions: recombinant enzyme.
A short description of data set [1]: Chemical stability at pH 4.5 and pH 7.4 in PBS. Type of data set: physicochemical. As to conditions: for Chemical Stability, pH 4.5: PBS pH 4.5, 37° C.; for Chemical Stability, pH 4.5 / Chemical Stability, pH 7.4: 5 μM, up to 240 min; for Chemical Stability, pH 7.4: PBS pH 7.4, 37° C. The procedure: The assay was performed in duplicate. […] Samples were incubated at 37° C. at 600 rpm.

The target of data set [2] is T1, Glucocorticoid receptor (GR) (Homo sapiens, UniProt P04150).
T1 sequence (P04150 1-777): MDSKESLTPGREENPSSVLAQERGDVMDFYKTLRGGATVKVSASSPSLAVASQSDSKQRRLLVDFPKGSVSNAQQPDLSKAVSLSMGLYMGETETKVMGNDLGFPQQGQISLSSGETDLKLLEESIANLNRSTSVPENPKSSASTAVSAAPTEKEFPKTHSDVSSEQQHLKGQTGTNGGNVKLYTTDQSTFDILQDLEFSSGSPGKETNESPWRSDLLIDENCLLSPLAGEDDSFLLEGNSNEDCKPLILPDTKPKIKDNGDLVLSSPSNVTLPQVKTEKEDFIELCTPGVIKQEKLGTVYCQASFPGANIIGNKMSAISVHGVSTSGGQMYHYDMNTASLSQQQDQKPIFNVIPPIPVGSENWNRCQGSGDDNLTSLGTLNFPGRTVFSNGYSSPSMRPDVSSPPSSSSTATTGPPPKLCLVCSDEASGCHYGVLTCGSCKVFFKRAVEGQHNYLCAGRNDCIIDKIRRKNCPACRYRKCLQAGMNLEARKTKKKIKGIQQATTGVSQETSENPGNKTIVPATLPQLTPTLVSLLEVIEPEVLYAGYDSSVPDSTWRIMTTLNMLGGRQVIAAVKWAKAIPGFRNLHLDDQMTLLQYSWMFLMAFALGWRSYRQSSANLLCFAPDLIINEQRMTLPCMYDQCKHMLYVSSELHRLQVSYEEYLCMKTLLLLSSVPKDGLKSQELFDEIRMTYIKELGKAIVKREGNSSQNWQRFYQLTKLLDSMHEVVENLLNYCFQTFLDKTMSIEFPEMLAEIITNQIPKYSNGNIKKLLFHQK
The experiment in a line: TR-FRET GR competitive binding assay. As to conditions: 0.1 μM. The procedure: Glucocorticoid receptor (GR) binding of prodrugs was determined using TR-FRET GR competitive binding assay. Three-point (0.1, 1 and 10 μM) binding was evaluated for each prodrug.

Data set [3] can be described thus: Metabolic stability in rat liver microsomes. Type of data set: in vitro ADME. As to conditions: rat, microsomes, 1 μM. The procedure:
Rat liver microsomes were obtained from qualified vendors and metabolic stability of the test compound was determined at 1 μM. The compound was incubated at 37° C. with 0.5 mg microsome/mL in the buffer in the presence of 1 mM NADPH. Aliquots of 50 μL were taken from the reaction solution at 0, 15, 30, 45 and 60 minutes. […] All samples were analyzed in duplicates.

Data set [4] in a line: Pharmacokinetic studies in rats: plasma and lung. As to conditions: rat, in vivo, iv. The procedure: Six to eight weeks old Sprague-Dawley rats were procured from a qualified provider. Test compounds were introduced in rats by a single intravenous administration. […] Blood samples (0.1, 0.2 or 0.5 mL) were collected with a 1 mL syringe containing anticoagulants K2EDTA. Blood samples were centrifuged to obtain plasma for analysis. […] After collection at each time point, lung samples were frozen at −75° C. Prior to analysis, a portion of lung sample was weighed and homogenized with phosphate buffer saline. […] Data analysis and pharmacokinetic parameters were generated using WinNonlin software.

[5] abbreviates: read-out: Rat Plasma Stability t½.

Several values for one entry are separate records, joined by “and”; a condition that tells them apart may be missing. Equal entries are not always repeated.

Chain of DPP4 (P27487 whole entry, species assumed): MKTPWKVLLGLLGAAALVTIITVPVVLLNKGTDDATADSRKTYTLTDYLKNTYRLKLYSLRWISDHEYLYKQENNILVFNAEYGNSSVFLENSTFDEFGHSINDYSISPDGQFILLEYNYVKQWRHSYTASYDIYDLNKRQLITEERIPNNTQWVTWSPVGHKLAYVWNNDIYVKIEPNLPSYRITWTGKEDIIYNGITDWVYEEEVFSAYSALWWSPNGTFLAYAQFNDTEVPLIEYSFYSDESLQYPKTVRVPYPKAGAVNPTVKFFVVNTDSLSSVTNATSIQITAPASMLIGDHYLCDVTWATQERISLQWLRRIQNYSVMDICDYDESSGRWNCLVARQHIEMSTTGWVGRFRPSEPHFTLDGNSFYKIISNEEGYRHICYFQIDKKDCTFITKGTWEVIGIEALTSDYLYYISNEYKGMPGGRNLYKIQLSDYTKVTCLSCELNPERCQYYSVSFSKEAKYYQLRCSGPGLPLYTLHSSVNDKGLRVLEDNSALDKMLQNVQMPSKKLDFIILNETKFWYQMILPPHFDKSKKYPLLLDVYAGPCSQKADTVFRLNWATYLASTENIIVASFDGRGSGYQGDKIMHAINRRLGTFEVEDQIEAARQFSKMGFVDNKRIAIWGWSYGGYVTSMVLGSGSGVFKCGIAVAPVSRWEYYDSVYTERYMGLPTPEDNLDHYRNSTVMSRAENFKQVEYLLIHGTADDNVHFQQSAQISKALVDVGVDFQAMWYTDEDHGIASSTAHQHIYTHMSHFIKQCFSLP
Description for Caco-2 cell monolayers: CaCO-2 cells were cultured, and a monolayer was developed in-house in 96 well-plates over 18 days using standard protocol. The monolayer was tested for the integrity of the cell monolayer before using.
Test compounds were added to the transwell insert (apical compartment) to determine the rate of drug transport in the apical to basolateral direction. To determine the rate of drug transport in the basolateral to apical direction, the test compound was added to the receiver plate wells (basolateral compartment). Appropriate amount of HBSS (10 mM HEPES, pH 7.4) was added in both compartments for a final volume of 200 μL. The plates were incubated at 37° C. with shaking at 150 rpm on a rotary shaker for 2 hours. At the end of the transport period, 50 μL from the apical and basolateral wells were collected and 4 volume of cold acetonitrile containing internal standards (IS: 100 nM alprazolam, 200 nM labetalol, and 2 μM ketoprofen) was added to each sample to terminate the reaction. The samples were vortexed and centrifuged at 3,800 g for 20 minutes. An aliquot of 150 μL of the supernatant was used for LC/MS/MS analysis. All samples were analyzed in duplicates. Samples were analyzed through LC/MS/MS for estimating the permeability and efflux of the compounds across Caco-2 cell monolayers.
Description for DPP4: Aliquots were withdrawn at 0, 60 and 120 minutes from the reaction mixture and quenched with 20-volumes of cold acetonitrile. […] Glycine-proline p-nitroanilide was used as a positive control for this assay.
Description for Human plasma stability: Rat and human plasma were obtained from qualified vendors. 5 μL of 500 μM of the test article solution was added to 495 μL of pre-incubated human or rat plasma to reach a final concentration of 5 μM. The final concentration of organic solvents was not more than 0.5%. The assay was performed in duplicate. The reaction samples were incubated in a 37° C. water bath with shaking at approximately 60 rpm. 50 μL of the reaction samples were collected at 0, 30, 60, 120 and 180 minutes. The reaction was stopped by adding 300 μL of room temperature quench solution (acetonitrile containing internal standards (IS, 200 nM labetalol, 100 nM alprazolam and 2 μM ketoprofen)). The samples were vortexed for 5 minutes followed by centrifugation of the samples at 3,220 g for 30 minutes at room temperature to precipitate the protein. 100 μL of the supernatant was transferred to a new plate and diluted with 100 μL or 200 μL water according to the LC/MS signal response and peak shape. The samples were mixed well and analyzed using LC/MS/MS. The remaining percentage of parent drug versus reaction time was used to calculate the t1/2 value.

`COc1cc(NC(=O)[C@@H](N)C(C)C)c(C(=O)OCC(=O)[C@@]2(O)[C@H](C)CC3[C@@H]4CCC5=CC(=O)C=C[C@]5(C)[C@@]4(F)[C@@H](O)C[C@@]32C)c(OC)c1` (some centres unmarked) [Compound 11]: the half-life at 5 μM in the data set “Rat plasma stability” and in the data set “in vitro” was greater than 4 h in each case.

`CNC(C(=O)N1CCCC1C(=O)NCC(C)(C)C(C)C(=O)OCC(=O)[C@@]1(O)[C@H](C)C[C@H]2[C@@H]3CCC4=CC(=O)C=C[C@]4(C)[C@@]3(F)[C@@H](O)C[C@@]21C)C(C)C` (some centres unmarked) [Compound 32]: at DPP4, the half-life at 10 μM amounted to 3.57 h.

Take `C[C@@H]1C[C@H]2[C@@H]3CCC4=CC(=O)C=C[C@]4(C)[C@@]3(F)[C@@H](O)C[C@]2(C)[C@@]1(O)C(=O)COC(=O)NCc1ccccc1NC(=O)[C@@H](N)Cc1ccccc1.Cl` [Compound 23]: the half-life at 5 μM in the data set “Rat plasma stability” (setting [5]) and in “Human plasma stability” was greater than 4 h each time.

With `CC(C)[C@H](N)C(=O)Nc1ccc([C@H](C)NC(=O)OCC(=O)[C@@]2(O)[C@H](C)C[C@H]3[C@@H]4CCC5=CC(=O)C=C[C@]5(C)[C@@]4(F)[C@@H](O)C[C@@]32C)cc1` [Compound 24], the half-life at 5 μM in the data set “Rat plasma stability” and in the data set “in vitro” was greater than 4 h each time.

Take `COc1cc(NC(=O)[C@@H](N)C(C)C)c(C(=O)OCC(=O)[C@@]2(O)[C@H](C)CC3[C@@H]4CCC5=CC(=O)C=C[C@]5(C)[C@@]4(F)[C@@H](O)C[C@@]32C)c(OC(C)C)c1` (some centres unmarked) [Compound 14]: the half-life at 5 μM in “Rat plasma stability” and in the data set “in vitro” was greater than 4 h throughout.

On to `C[C@@H]1CC2[C@@H]3CCC4=CC(=O)C=C[C@]4(C)[C@@]3(F)[C@@H](O)C[C@]2(C)[C@@]1(O)C(=O)COC(=O)c1cccc(F)c1NC(=O)[C@@H](N)Cc1ccccc1.Cl` (some centres unmarked) [Compound 7], for which, in data set [1], the “Chemical Stability, pH 4.5” value is reported as “Yes” and the “Chemical Stability, pH 7.4” value is reported as “Yes”.

In the data set “in vitro”, `CC(C)C(N)C(=O)OCC(=O)[C@@]1(O)[C@H](C)C[C@H]2[C@@H]3CCC4=CC(=O)C=C[C@]4(C)[C@@]3(F)[C@@H](O)C[C@@]21C` (some centres unmarked) [Comparative Compound 1, reference compound] gave a half-life at 5 μM of 2.88 h.

On to `COc1cc(NC(=O)[C@@H](N)Cc2ccccc2)c(C(=O)OCC(=O)[C@@]2(O)[C@H](C)CC3[C@@H]4CCC5=CC(=O)C=C[C@]5(C)[C@@]4(F)[C@@H](O)C[C@@]32C)c(OC)c1` (some centres unmarked) [Compound 12], for which the half-life at 5 μM in the data set “Rat plasma stability” and in “in vitro” was greater than 4 h throughout.

As to `C[C@@H]1C[C@H]2[C@@H]3CCC4=CC(=O)C=C[C@]4(C)[C@@]3(F)[C@@H](O)C[C@]2(C)[C@@]1(O)C(=O)CO` [Dexamethasone, reference compound], in data set [2], the “GR Binding Data” value was found to be 85%.

As for `COc1cc(N(C)C)cc(NC(=O)[C@H](Cc2ccccc2)N(C)C)c1C(=O)OCC(=O)[C@@]1(O)[C@H](C)CC2[C@@H]3CCC4=CC(=O)C=C[C@]4(C)[C@@]3(F)[C@@H](O)C[C@@]21C` (some centres unmarked) [Compound 16], the half-life at 5 μM in the data set “Rat plasma stability” and in the data set “in vitro” was greater than 4 h in each case.

Consider `CC(NNC(=O)C1CCCN1)C(C)C(=O)OCC(=O)[C@@]1(O)[C@H](C)C[C@H]2[C@@H]3CCC4=CC(=O)C=C[C@]4(C)[C@@]3(F)[C@@H](O)C[C@@]21C` (some centres unmarked) [Compound 28], for which the half-life at 5 μM is 2.45 h in “Rat plasma stability” and greater than 4 h in the data set “in vitro”.

As for `C[C@@H]1C[C@H]2[C@@H]3CCC4=CC(=O)C=C[C@]4(C)[C@@]3(F)[C@@H](O)C[C@]2(C)[C@@]1(O)C(=O)COC(=O)[C@@H]1CCCN1` [Comparative Compound 3, reference compound], the half-life at 5 μM in the data set “in vitro” amounted to 0.417 h.

Turning to `CC(NC(=O)[C@@H](N)Cc1ccccc1)c1cscc1C(=O)OCC(=O)[C@@]1(O)[C@H](C)C[C@H]2[C@@H]3CCC4=CC(=O)C=C[C@]4(C)[C@@]3(F)[C@@H](O)C[C@@]21C` (some centres unmarked) [Compound 36], the half-life at 5 μM in the data set “Rat plasma stability” and in the data set “in vitro” was greater than 4 h each time.

Consider `CC(C)C(N)C(=O)N1CCCC1C(=O)NCC1(CC(=O)OCC(=O)[C@@]2(O)[C@H](C)C[C@H]3[C@@H]4CCC5=CC(=O)C=C[C@]5(C)[C@@]4(F)[C@@H](O)C[C@@]32C)CC1` (some centres unmarked) [Compound 34], for which the half-life at 5 μM in the data set “Rat plasma stability” and in the data set “in vitro” was greater than 4 h in each case.

In the case of `COc1cc(N(C)C)cc(NC(=O)[C@@H](N)Cc2ccccc2)c1C(=O)OCC(=O)[C@@]1(O)[C@H](C)CC2[C@@H]3CCC4=CC(=O)C=C[C@]4(C)[C@@]3(F)[C@@H](O)C[C@@]21C` (some centres unmarked) [Compound 15], the half-life at 5 μM in the data set “Rat plasma stability” and in “in vitro” was greater than 4 h each time.

Take `CC(C)[C@H](N)C(=O)Nc1cscc1CC(=O)OCC(=O)[C@@]1(O)[C@H](C)C[C@H]2[C@@H]3CCC4=CC(=O)C=C[C@]4(C)[C@@]3(F)[C@@H](O)C[C@@]21C.Cl` [Compound 38]: in data set [1], the “Chemical Stability, pH 4.5” value is reported as “Yes”. In addition, the “Chemical Stability, pH 7.4” value in data set [1] was “Yes”. The half-life at 5 μM in “Rat plasma stability” (setting [5]) and in “Human plasma stability” was greater than 4 h in each case.

As to `CC(C)[C@H](N)C(=O)Nc1ccc(C(=O)OCC(=O)[C@@]2(O)[C@H](C)C[C@H]3[C@@H]4CCC5=CC(=O)C=C[C@]5(C)[C@@]4(F)[C@@H](O)C[C@@]32C)cc1F` [Compound 6], the half-life at 5 μM in “Rat plasma stability” and in “in vitro” was greater than 4 h throughout.

For the molecule `CC(C)C(N)C(=O)N1CCCC1C(=O)NCC(C)(C)C(C)C(=O)OCC(=O)[C@@]1(O)[C@H](C)C[C@H]2[C@@H]3CCC4=CC(=O)C=C[C@]4(C)[C@@]3(F)[C@@H](O)C[C@@]21C` (some centres unmarked) [Compound 31], in [1], the Chemical stability result is “Yes”. In addition, in “Rat plasma stability” (5 μM), the Rat plasma stability is given as greater than 240. The half-life at 5 μM in the data set “Rat plasma stability” and in “in vitro” was greater than 4 h each time. The molecule further had an RLM in [3] of 63. In [4], the “Lung/Plasma % of Dex” value is 74% and 100% and 78%. Besides, the “Permeability A-B” value in the data set with Caco-2 cell monolayers is “A-B = 0.065 × 10^−6, cm/s”. Moreover, the “Permeability B-A” value with Caco-2 cell monolayers is “B-A = 11 × 10^−6, cm/s”. The half-life at 10 μM at DPP4 was 2.78 h.

For `COc1cc(Br)c(C(=O)OCC(=O)[C@@]2(O)[C@H](C)CC3[C@@H]4CCC5=CC(=O)C=C[C@]5(C)[C@@]4(F)[C@@H](O)C[C@@]32C)c(NC(=O)[C@@H](N)C(C)C)c1` (some centres unmarked) [Compound 13], the half-life at 5 μM in “Rat plasma stability” and in the data set “in vitro” was greater than 4 h in each case.

`CC(C)[C@H](N)C(=O)Nc1ccc(C(=O)OCC(=O)[C@@]2(O)[C@H](C)C[C@H]3[C@@H]4CCC5=CC(=O)C=C[C@]5(C)[C@@]4(F)[C@@H](O)C[C@@]32C)cc1` [Compound 1]: the half-life at 5 μM in the data set “in vitro” was greater than 4 h.

As to `CC(C)[C@H](N)C(=O)NCCc1cscc1C(=O)OCC(=O)[C@@]1(O)[C@H](C)C[C@H]2[C@@H]3CCC4=CC(=O)C=C[C@]4(C)[C@@]3(F)[C@@H](O)C[C@@]21C` [Compound 37], the half-life at 5 μM in the data set “Rat plasma stability” and in the data set “in vitro” was greater than 4 h each time.

As for `CC(C)[C@H](NC(=O)[C@@H]1CCCN1C(=O)CN)C(=O)Nc1ccc(C(=O)OCC(=O)[C@@]2(O)[C@H](C)C[C@H]3[C@@H]4CCC5=CC(=O)C=C[C@]5(C)[C@@]4(F)[C@@H](O)C[C@@]32C)cc1` [Compound 3], the half-life at 10 μM on DPP4 is 2.53 h.

In the case of `CC(CC(=O)OCC(=O)[C@@]1(O)[C@H](C)C[C@H]2[C@@H]3CCC4=CC(=O)C=C[C@]4(C)[C@@]3(F)[C@@H](O)C[C@@]21C)c1ccccc1NC(=O)[C@@H](N)C(C)C.Cl` (some centres unmarked) [Compound 18], in [2], the “GR Binding Data” value is given as 46%.

As to `CC(NC(C)[C@@H](N)C(C)C)c1cscc1C(=O)OCC(=O)[C@@]1(O)[C@H](C)C[C@H]2[C@@H]3CCC4=CC(=O)C=C[C@]4(C)[C@@]3(F)[C@@H](O)C[C@@]21C` (some centres unmarked) [Compound 35], the half-life at 5 μM in “Rat plasma stability” and in “in vitro” was greater than 4 h each time.

The values above are taken from US20260027131A1, “PRODRUGS, PRODRUG COMPOSITIONS AND RELATED METHODS” (Praesidia Biotherapeutics Inc., priority 2022, published 2026).
